What was measured:
[1] = test system: Human peripheral blood lymphocytes (PBMC); experiment: Human peripheral blood T lymphocyte proliferation activation (3H-thymidine incorporation, stimulation index); conditions: concentrations 0.001 μM to 500 μM, 4 days then 24 hours 3H-TdR, FIG. 1
Method: Human peripheral blood lymphocytes (PBMC) are isolated from donors' by centrifugation on Ficoll-Hypaque. They are then placed in culture in 96-well plates at a rate of 2.10^6 cells/ml in 200 μl of RPMI 1640 medium (Gibco) containing 10% foetal calf serum or human AB serum, 20 mM of Glutamine, 10 mM Hepes, 1 mM of sodium pyruvate, 10 μg/ml of penicillin-streptomycin. The molecules under test are then added at final concentrations ranging from 0.001 μM to 500 μM. Each condition is produced in triplicate. The molecules are diluted in isotonic phosphate buffer (PBS). The cells are then incubated at 37° C.-5% CO2 for 4 days. Cell proliferation is then determined by measuring the incorporation of thymidine ^3H (^3H-TdR). For this, 0.5 μCi of ^3H-TdR is added per culture. After 24 hours, the cells are retrieved on Cell Harvester (Packard Instruments) and the radioactivity incorporated in high molecular weight material is counted using a Rack-Beta counter (Packard).
The stimulation indices are evaluated as follows:
In all the experiments, isoprenyl pyrophosphonate (IPP) is selected as the reference.

Vγ9/Vδ2 lymphocytes = experiment: Vγ9/Vδ2 lymphocyte expansion (flow cytometry immunofluorescence, anti-CD3 / anti-Vγ9); assay type: cell-based, human; conditions: PBMC after 5 days in culture, 100 μM; FIG. 2E-2L
Method: FIGS. 2A-2L. In order to verify selectivity with respect to Vγ9/Vδ2 lymphocytes of molecule activating potential, PBMCs, were cultured and analysed after 5 days of culture in the presence of various molecules by flow cytometry immunofluorescence. For this, the cells are retrieved, washed in PBS and then incubated in the presence of human anti-CD3 monoclonal antibodies conjugated with fluoroscein (FITC, FL1) and human anti-Vγ9 coupled with biotin and then detected with Streptavidine-phycoerythrin conjugate (ST-PE, FL2). The markings are produced by incubating for 30 minutes with 0.5 μg of each antibody per million cells. The analysis is performed after washing on a FACScalibur-SORT cell analyser-sorter cytofluorimeter (Becton Dickinson, Mountain View, CA). FIG. 2A gives the profile (size FSC and granularity SSC) of the cells studied. […] FIGS. 2D to 2L show a PBMC after 5 days in culture in the presence of the molecule tested. FIG. 2D: cells stimulated with 1μg/ml phytohaemagglutinin A (PHA). FIG. 2E: cells stimulated with 100μM isoprenylpyrophosphate (IPP). FIG. 2F: cells stimulated with 100μM 1-pyrophosphono-4-methylpenta-1,3-diene. FIG. 2G: cells stimulated with 100μM (E) 1-pyrophosphono-penta-1,3-diene. FIG. 2H: cells stimulated with 100μM (E) 1-pyrophosphono-buta-1,3-diene, FIG. 2I: cells stimulated with 100μM 5-pyrophosphono-2-methylpent-2-ene. FIG. 2J: cells stimulated with 100μM α,γ-di-[4-methylpent-4-enyl]-triphosphonate. FIG. 2K: cells stimulated with 100μM 5-pyrophosphono-2methylpentene. FIG. 2L: cells stimulated with 100μM 5-triphosphono-2-methylpentene.
In order to verify selectivity with respect to Vγ9/Vδ2 lymphocytes of the molecule activating potential, PBMCs, cultured under the conditions described above were analysed after 5 days of culture in the presence of various molecules by flow cytometry immunofluorescence. For this, the cells are retrieved, washed in PBS and then incubated in the presence of human anti-CD3 monoclonal antibodies conjugated with fluoroscein (FITC, FL1) and human anti-Vγ9 coupled with biotin and then detected with Streptavidine-phycoerythrin conjugate (ST-PE, FL2). The markings are produced by incubating for 30 minutes with 0.5 μg of each antibody per million cells. The analysis is performed after washing on a FACScalibur-SORT cell analyser-sorter cytofluorimeter (Becton Dickinson, Mountain View, Calif.). The results are processed using Cellquest software.
FIG. 2A gives the profile (size FSC and granularity SSC) of the cells studied. […] FIGS. 2D to 2L show a PBMC after 5 days in culture in the presence of the molecule tested.

[2] = Stability in human AB serum followed by phosphorus 31 NMR; conditions: three days of incubation; for degradation of the molecule after incubation in serum: human AB serum, 31P NMR
Method: To 0.5 ml of each solution, 500 μl of human AB serum was added and the mixture were left to incubate. After three days of incubation, the degradation of the molecule is measured by phosphorus 31 NMR.

human γ9δ2 T lymphocytes = conditions: in vitro; literature (Tanaka et al. 1994; Kunzmann et al. 2000); cited from earlier work
[3] = 0.1 mole/liter in D2O, 0.5 ml + 500 μl human AB serum

Compound: 5-pyrophosphono-2-methylpent-2-ene [Compound M4]
- inducing T lymphocyte proliferation (proliferation index) compared with IPP [1]: more effective than IPP
- Vγ9/Vδ2 T cell population in stimulated cultures (Vγ9/Vδ2 lymphocytes): high increase

Compound: 5-pyrophosphono-2-methylpentene [Compound M6]
- inducing T lymphocyte proliferation (proliferation index) compared with IPP [1]: more effective than IPP
- Vγ9/Vδ2 T cell population in stimulated cultures (Vγ9/Vδ2 lymphocytes): high increase

Compound: 5-triphosphono-2-methylpentene [Compound M7]
- inducing T lymphocyte proliferation (proliferation index) compared with IPP [1]: more effective than IPP
- Vγ9/Vδ2 T cell population in stimulated cultures (Vγ9/Vδ2 lymphocytes): high increase

Compound: C=C(C)CCO[P@@](=O)(O)OP(=O)(O)O [IPP, isopentenyl pyrophosphate, reference compound]
- integral of the 31P NMR peak of the intact molecule [2, 3]: 1.2
- degradation of the molecule after incubation in serum [2]: significant degradation

Compound: NCCCC(O)(P(=O)(O)O)P(=O)(O)O [alendronate]
- γ9δ2 T lymphocyte proliferation (human γ9δ2 T lymphocytes): stimulants of γ9δ2 T lymphocyte proliferation

Compound: CCCCCN(C)CCC(O)(P(=O)(O)O)P(=O)(O)O [ibandronate]
- γ9δ2 T lymphocyte proliferation (human γ9δ2 T lymphocytes): stimulants of γ9δ2 T lymphocyte proliferation

Compound: CCOP(=O)(O)O [monoethylphosphate]
- γ9δ2 T lymphocyte proliferation (human γ9δ2 T lymphocytes): induce in vitro, the proliferation of γ9δ2 T lymphocytes

Compound: NCCC(O)(P(=O)(O)O)P(=O)(O)O [pamidronate]
- γ9δ2 T lymphocyte proliferation (human γ9δ2 T lymphocytes): stimulants of γ9δ2 T lymphocyte proliferation

Compound: (E) 1-pyrophosphono-4-methylpenta-1,3-diene [Compound M1]
- inducing T lymphocyte proliferation (proliferation index) compared with IPP [1]: more effective than IPP
- Vγ9/Vδ2 T cell population in stimulated cultures (Vγ9/Vδ2 lymphocytes): high increase

Compound: (E) 1-pyrophosphono-buta-1,3-diene [Compound M3]
- inducing T lymphocyte proliferation (proliferation index) compared with IPP [1]: more effective than IPP
- Vγ9/Vδ2 T cell population in stimulated cultures (Vγ9/Vδ2 lymphocytes): high increase

Compound: (E) 1-pyrophosphono-penta-1,3-diene [Compound M2]
- inducing T lymphocyte proliferation (proliferation index) compared with IPP [1]: more effective than IPP
- Vγ9/Vδ2 T cell population in stimulated cultures (Vγ9/Vδ2 lymphocytes): high increase

Compound: isopentenyl pyrophosphonate [IPPN]
- integral of the 31P NMR peak of the degradation product (isoprenyl phosphate / isoprenyl phosphonate) [2, 3]: 1.1
- integral of the 31P NMR peak of the intact molecule [2, 3]: 96
- degradation of the molecule after incubation in serum [2]: changed negligibly

Compound: α,γ-di-[4-methylpent-4-enyl]-triphosphonate [Compound M5]
- inducing T lymphocyte proliferation (proliferation index) compared with IPP [1]: more effective than IPP
- Vγ9/Vδ2 T cell population in stimulated cultures (Vγ9/Vδ2 lymphocytes): high increase

— patent US8017596B2, “Phosphonates useful as modulators of T-γ-9-δ-2 activity” (Innate Pharma, S.A., priority 2001, dated 2011)
